Results from PubChem BioAssay (NCI).
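Briefly, cells in 96-well plates were exposed to five compound concentrations for 48 h, and endpoints were estimated by linear interpolation. The concentration for 50% growth inhibition is given as GI50. At the TGI there is no net growth.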

Tests used:
Test in all cases: growth of human tumour cells (NCI), 48 h
ACHN renal = system: ACHN renal
HCT-116 colon = system: HCT-116 colon
HOP-92 NSCLC = system: HOP-92 NSCLC
OVCAR-5 ovarian = system: OVCAR-5 ovarian
SK-MEL-28 melanoma = system: SK-MEL-28 melanoma
SK-MEL-5 melanoma = system: SK-MEL-5 melanoma
SNB-19 CNS = system: SNB-19 CNS
SNB-75 CNS = system: SNB-75 CNS
UACC-257 melanoma = system: UACC-257 melanoma
RXF 393 renal = system: RXF 393 renal

SMILES | TGI (ACHN renal) [µM] | TGI (HCT-116 colon) [µM] | TGI (HOP-92 NSCLC) [µM] | TGI (OVCAR-5 ovarian) [µM] | TGI (SK-MEL-28 melanoma) [µM] | TGI (SK-MEL-5 melanoma) [µM] | TGI (SNB-19 CNS) [µM] | TGI (SNB-75 CNS) [µM] | TGI (UACC-257 melanoma) [µM] | GI50 (ACHN renal) [µM] | GI50 (HOP-92 NSCLC) [µM] | GI50 (RXF 393 renal) [µM] | TGI (RXF 393 renal) [µM] | GI50 (SK-MEL-28 melanoma) [µM] | GI50 (SK-MEL-5 melanoma) [µM] | GI50 (UACC-257 melanoma) [µM] | GI50 (HCT-116 colon) [µM] | GI50 (OVCAR-5 ovarian) [µM] | GI50 (SNB-19 CNS) [µM] | GI50 (SNB-75 CNS) [µM]
N#Cc1c(-c2ccc(Cl)cc2)cc(-c2nc3ccccc3[nH]2)nc1N | 45.2 | 22.5 | 26.3 | 43.4 | 36 | 20.6 | 27.5 | 31.2 | 18.5 | – | – | – | – | – | – | – | – | – | – | –
COc1ccc(N2C(=O)/C(=C/c3ccc(N(CCC#N)CCC#N)cc3)N=C2c2ccccc2)c(OC)c1 | > 100 | > 100 | 68.9 | > 100 | > 100 | > 100 | > 100 | > 100 | > 100 | – | – | – | – | – | – | – | – | – | – | –
c1cc2ccc1CNCCN1CCNCc3ccc(cc3)Oc3ccc(cc3)CNCCN(CCNCc3ccc(cc3)O2)CCNCc2ccc(cc2)Oc2ccc(cc2)CNCC1 | 15.5 | – | 0.0501 | – | 3.21 | 5.19 | – | – | 3.4 | 3.88 | 0.0202 | 1.78 | 3.72 | 1.75 | 2.26 | 1.8 | – | – | – | –
CC(C)c1nccn1Cc1ccc(Cl)cc1Cl | > 100 | 63.4 | > 100 | > 100 | > 100 | 34.9 | > 100 | 85 | 95.9 | – | – | – | – | – | – | – | – | – | – | –
O=C(O)CCCc1ccc2c(c1)CC1(C2)Cc2ccc(CCCC(=O)O)cc2C1 | > 100 | > 100 | > 100 | > 100 | – | > 100 | – | – | > 100 | – | – | – | > 100 | – | – | – | – | – | – | –
N#Cc1c(C#N)c(-c2ccccc2)n(/N=C\c2ccccc2)c1N | > 100 | > 100 | 68.4 | > 100 | – | 32.8 | > 100 | 74.2 | 70.3 | – | – | – | 70.5 | – | – | – | – | – | – | –
NC1CCCCC1N.O=S(=O)([O-])CCCN1CCN(CCO)CC1.O=S(=O)([O-])CCCN1CCN(CCO)CC1.[Pt+4] | – | > 100 | 59.3 | > 38.7 | 29.8 | 17.2 | > 100 | > 100 | 24 | – | 19 | 15.9 | 82.5 | 8.22 | 2.57 | 5.77 | 2 | 8.22 | 43.1 | > 39.9
C=C1C(=O)O[C@H]2C/C(C=O)=C\[C@H]3O[C@H]3/C(COC(=O)C(C)C)=C/CC12 (some centres not stated) | 6.59 | 10.1 | – | 7.48 | 14.8 | 22.2 | 35.4 | – | 28.4 | – | – | – | 14 | – | – | – | – | – | – | –
Cc1cccc(C(O)c2cccnc2)c1O (configuration not stated) | > 100 | > 100 | – | > 100 | > 100 | > 100 | > 100 | > 100 | > 100 | – | – | – | > 100 | – | – | – | – | – | – | –
CC1(C)N=C(N)N=C(N)N1c1ccc(OCCCOc2ccccc2)c(Cl)c1 | – | 13.5 | 3.83 | 10.4 | 9.16 | 3 | 1.06 | 17.3 | 15.1 | – | – | – | 22.8 | – | – | – | – | – | – | –
O=C(NC/C=C/Br)NC1CCNc2ccccc21 (configuration not stated) | > 100 | > 100 | – | > 100 | > 100 | 37.7 | > 100 | > 100 | 54.9 | – | – | – | > 100 | – | – | – | – | – | – | –
Cn1c(=O)c2sc3cc4c(cc3c2c2ccccc21)sc1c(=O)n(C)c2ccccc2c14 | 54.8 | > 100 | 99.1 | > 100 | > 100 | > 100 | – | 93.6 | > 100 | – | – | – | 45 | – | – | – | – | – | – | –
CC1(C)O[C@@H](CP(c2cccc3ccccc23)c2cccc3ccccc23)[C@H](CP(c2cccc3ccccc23)c2cccc3ccccc23)O1 | > 100 | > 100 | – | > 100 | > 100 | > 100 | > 100 | > 100 | > 100 | – | – | – | > 100 | – | – | – | – | – | – | –
Cc1ccc2cnc(N)c(C#Cc3cncc(C(=O)Nc4ccc(CN5CCN(C)CC5)c(C(F)(F)F)c4)c3)c2c1 | 0.864 | – | 0.446 | 1.24 | 1.25 | 1.51 | 1.46 | 1.44 | 1.38 | 0.252 | 0.0771 | 0.632 | 1.29 | 0.616 | 0.813 | 0.605 | – | 0.579 | 0.786 | 0.716
O=C1OC2C=CC1C1(CCOC1=O)C2 (configuration not stated) | > 100 | > 100 | > 100 | > 100 | > 100 | > 100 | > 100 | > 100 | > 100 | – | – | – | – | – | – | – | – | – | – | –
CCCC(=O)OC1CC(n2cc(F)c(=O)[nH]c2=O)OC1CO (configuration not stated) | > 10 | > 10 | – | > 10 | > 10 | 1.84 | > 10 | > 8.14 | > 10 | – | – | – | > 10 | – | – | – | – | – | – | –
CCCCCCCCCCCCCCCCNc1ccn(C2CC(OP(=O)(O)OCC3OC(n4cc(CC)c(=O)[nH]c4=O)CC3O)C(CO)O2)c(=O)n1 (configuration not stated) | > 100 | > 100 | > 100 | 62.8 | 68.3 | – | 31.7 | 81.1 | 97.4 | – | – | – | 46.4 | – | – | – | – | – | – | –
Cc1cccc2c1C(=O)[C@@](C)([C@]1(C)Nc3cccc(C)c3C1=O)N2 | > 100 | > 100 | – | > 100 | > 100 | > 100 | > 100 | > 100 | > 100 | – | – | – | > 100 | – | – | – | – | – | – | –
CC1(C)CC2(C)OC(=N)C1(C#N)C2(C#N)C#N (configuration not stated) | 20.3 | 20.1 | 10.5 | 27.3 | – | 21 | 31 | – | 19.9 | – | – | – | 27.2 | – | – | – | – | – | – | –
COc1ccc(NS(=O)c2cccc(C)c2)cc1 (configuration not stated) | > 100 | > 100 | – | > 100 | > 100 | 75 | > 100 | > 100 | > 100 | – | – | – | > 100 | – | – | – | – | – | – | –
